According to US20260159511A1, “SMALL MOLECULE STING ANTAGONISTS” (CURADEV PHARMA PVT. LTD., priority 2021, published 2026):
Read-outs that look alike come from different tables or passages of the source.

System: IRF pathway in THP1-Dual™ cells, THP-1 (HAQ)
Assay: Reporter gene expression assay in THP-1 cells (THP1-Dual, IRF pathway Lucia luciferase reporter, 2′,3′-cGAMP stimulation)
Type: cell-based, human
Conditions: THP1-Dual cells preincubated with compound 10 minutes, stimulation with 5 μM 2′,3′-cGAMP for 20 hr, QUANTI-Luc readout of the supernatant, read-out: THP-1 (HAQ) Activity (IC50 value range)
Outline: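 THP-1-derived THP1-Dual cells (5×10^4) preincubated with compound for 10 minutes, then stimulated with 5 μM 2′,3′-cGAMP. After 20 hr, secreted Lucia luciferase (IRF pathway reporter) measured in supernatant by luminescence.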

Row | Structure (SMILES) | IC50 (Homo sapiens) [nM] | IC50 [nM]
1 | Cc1cc(CN2CCSc3cc(NC(=O)Nc4c[nH]c5ccccc45)ccc32)no1 [Example 96, 1-(1H-indol-3-yl)-3-(4-((5-methylisoxazol-3-yl)methyl)-3,4-dihydro-2H-benzo[b][1,4]thiazin-7-yl)urea] | < 1000 | 
2 | O=C(Nc1ccc2c(c1)N(Cc1cc(F)cc(F)c1)CCS2)Nc1c[nH]c2ccc(F)cc12 [Example 93, 1-(4-(3,5-difluorobenzyl)-3,4-dihydro-2H-benzo[b][1,4]thiazin-6-yl)-3-(5-fluoro-1H-indol-3-yl)urea] | < 1000 | 
3 | Cc1cc(CN2CCSc3cc(NC(=O)Nc4c[nH]c5ccccc45)ccc32)on1 [Example 86, 1-(1H-indol-3-yl)-3-(4-((3-methylisoxazol-5-yl)methyl)-3,4-dihydro-2H-benzo[b][1,4]thiazin-7-yl)urea] | < 1000 | 
4 | O=C(Nc1ccc2c(c1)N(Cc1ccccc1)C(=O)CS2)Nc1c[nH]c2ncc(Br)cc12 [Example 6, 1-(4-benzyl-3-oxo-3,4-dihydro-2H-benzo[b][1,4]thiazin-6-yl)-3-(5-bromo-1H-pyrrolo[2,3-b]pyridin-3-yl)urea] | < 1000 | 
5 | O=C(Nc1ccc2c(c1)N(Cc1c(F)cccc1Cl)C(=O)CO2)Nc1c[nH]c2ccccc12 [Example 8, 1-(4-(2-chloro-6-fluorobenzyl)-3-oxo-3,4-dihydro-2H-benzo[b][1,4]oxazin-6-yl)-3-(1H-indol-3-yl)urea] | < 1000 | 
6 | O=C(Nc1ccc2c(c1)N(Cc1cc(F)cc(F)c1)CCO2)Nc1c[nH]c2ccc(F)cc12 [Example 91, 1-(4-(3,5-difluorobenzyl)-3,4-dihydro-2H-benzo[b][1,4]oxazin-6-yl)-3-(5-fluoro-1H-indol-3-yl)urea] | < 1000 | 
7 | NC(=O)c1ccccc1CN1C(=O)CSc2ccc(NC(=O)Nc3c[nH]c4ccccc34)cc21 [Example 22, 2-((6-(3-(1H-indol-3-yl)ureido)-3-oxo-2,3-dihydro-4H-benzo[b][1,4]thiazin-4-yl)methyl)benzamide] | 1000 to 10000 | 
8 | O=C(Nc1ccc2c(c1)N(Cc1c(F)cccc1Cl)CCO2)Nc1c[nH]c2ccccc12 [Example 74, 1-(4-(2-chloro-6-fluorobenzyl)-3,4-dihydro-2H-benzo[b][1,4]oxazin-6-yl)-3-(1H-indol-3-yl)urea] | < 1000 | 
9 | NC(=O)c1ccccc1CN1CCSc2cc(NC(=O)Nc3c[nH]c4ccccc34)ccc21 [Example 95, 2-((7-(3-(1H-indol-3-yl)ureido)-2,3-dihydro-4H-benzo[b][1,4]thiazin-4-yl)methyl)benzamide] | < 1000 | 
10 | C[C@H]1c2ccc(NC(=O)Nc3c[nH]c4ccccc34)cc2N(Cc2c(F)ccc(O)c2Cl)C(=O)N1C [Example 108, (S)-1-(1-(2-chloro-6-fluoro-3-hydroxybenzyl)-3,4-dimethyl-2-oxo-1,2,3,4-tetrahydroquinazolin-7-yl)-3-(1H-indol-3-yl)urea] | 1000 to 10000 | 
11 | O=C(Nc1ccc2c(c1)N(Cc1cc(F)cc(Cl)c1)CCS2)Nc1c[nH]c2ccc(F)cc12 [Example 101, 1-(4-(3-chloro-5-fluorobenzyl)-3,4-dihydro-2H-benzo[b][1,4]thiazin-6-yl)-3-(5-fluoro-1H-indol-3-yl)urea] | < 1000 | 
12 | O=C(Nc1ccc2c(c1)N(Cc1cc(F)cc(F)c1)C(=O)CS2)Nc1c[nH]c2ccc(F)cc12 [Example 32, 1-(4-(3,5-difluorobenzyl)-3-oxo-3,4-dihydro-2H-benzo[b][1,4]thiazin-6-yl)-3-(5-fluoro-1H-indol-3-yl)urea] | < 1000 | 
13 | O=C(Nc1ccc2c(c1)N(Cc1c(F)ccc(O)c1Cl)C(=O)CS2)Nc1c[nH]c2ccccc12 [Example 34, 1-(4-(2-chloro-6-fluoro-3-hydroxybenzyl)-3-oxo-3,4-dihydro-2H-benzo[b][1,4]thiazin-6-yl)-3-(1H-indol-3-yl)urea] | < 1000 | 
14 | Cc1nc(N2CCSc3ccc(NC(=O)Nc4c[nH]c5ccccc45)cc32)ccc1F [Example 102, 1-(4-(5-Fluoro-6-methylpyridin-2-yl)-3,4-dihydro-2H-benzo[b][1,4]thiazin-6-yl)-3-(1H-indol-3-yl)urea] | < 1000 | 
15 | O=C(Nc1ccc2c(c1)SCCN2C(=O)c1ccccc1)Nc1c[nH]c2ccccc12 [Example 80, 1-(4-benzoyl-3,4-dihydro-2H-benzo[b][1,4]thiazin-7-yl)-3-(1H-indol-3-yl)urea] | < 1000 | 
16 | O=C(Nc1ccc2c(c1)SCCN2Cc1ccccc1)Nc1c[nH]c2ccccc12 [Example 73, 1-(4-benzyl-3,4-dihydro-2H-benzo[b][1,4]thiazin-7-yl)-3-(1H-indol-3-yl)urea] | < 1000 | 
17 | O=C(Nc1ccc2c(c1)N(Cc1ccncc1)C(=O)CS2)Nc1c[nH]c2ccccc12 [Example 20, 1-(1H-indol-3-yl)-3-(3-oxo-4-(pyridin-4-ylmethyl)-3,4-dihydro-2H-benzo[b][1,4]thiazin-6-yl)urea] | 1000 to 10000 | 
18 | CC1CN(Cc2ccccc2)c2cc(NC(=O)Nc3c[nH]c4ccc(F)cc34)ccc2S1 (stereo not drawn) [Example 97, 1-(4-benzyl-2-methyl-3,4-dihydro-2H-benzo[b][1,4]thiazin-6-yl)-3-(5-fluoro-1H-indol-3-yl)urea] | < 1000 | 
19 | O=C(Nc1ccc2c(c1)N(Cc1ccccc1)CCS2)Nc1c[nH]c2ncc(F)cc12 [Example 100, 1-(4-benzyl-3,4-dihydro-2H-benzo[b][1,4]thiazin-6-yl)-3-(5-fluoro-1H-pyrrolo[2,3-b]pyridin-3-yl)urea] | < 1000 | 
20 | CC1Sc2ccc(NC(=O)Nc3c[nH]c4ccccc34)cc2N(Cc2ccccc2)C1=O (stereo not drawn) [Example 35, 1-(4-benzyl-2-methyl-3-oxo-3,4-dihydro-2H-benzo[b][1,4]thiazin-6-yl)-3-(1H-indol-3-yl)urea] |  | < 1000
21 | CC1CN(Cc2c(F)cccc2Cl)c2cc(NC(=O)Nc3c[nH]c4ccccc34)ccc2S1 (stereo not drawn) [Example 84, 1-(4-(2-chloro-6-fluorobenzyl)-2-methyl-3,4-dihydro-2H-benzo[b][1,4]thiazin-6-yl)-3-(1H-indol-3-yl)urea] | < 1000 | 

Other lines, results leading:

Row | IC50 (Homo sapiens) [nM] | IC50 [nM] | Structure (SMILES)
22 | 1000 to 10000 |  | NC(=O)c1ccc(CN2C(=O)CSc3ccc(NC(=O)Nc4c[nH]c5ccccc45)cc32)cc1 [Example 23, 4-((6-(3-(1H-indol-3-yl)ureido)-3-oxo-2,3-dihydro-4H-benzo[b][1,4]thiazin-4-yl)methyl)benzamide]
23 | 1000 to 10000 |  | O=C(Nc1ccc2c(c1)N(Cc1ccccc1)C(=O)CS2)Nc1c[nH]c2ccc(-c3cncc(CO)c3)cc12 [Example 61, 1-(4-benzyl-3-oxo-3,4-dihydro-2H-benzo[b][1,4]thiazin-6-yl)-3-(5-(5-(hydroxymethyl)pyridin-3-yl)-1H-indol-3-yl)urea]
24 | < 1000 |  | O=C(Nc1ccc2c(c1)N(Cc1ccccc1)C(=O)CS2)Nc1c[nH]c2ccc(-c3cnn(CC4CC4)c3)cc12 [Example 60, 1-(4-benzyl-3-oxo-3,4-dihydro-2H-benzo[b][1,4]thiazin-6-yl)-3-(5-(1-(cyclopropylmethyl)-1H-pyrazol-4-yl)-1H-indol-3-yl)urea]
25 | 1000 to 10000 |  | O=C(Nc1ccc2c(c1)N(Cc1ccccc1)C(=O)CS2)Nc1c[nH]c2cccnc12 [Example 17, 1-(4-benzyl-3-oxo-3,4-dihydro-2H-benzo[b][1,4]thiazin-6-yl)-3-(1H-pyrrolo[3,2-b]pyridin-3-yl)urea]
26 | < 1000 |  | O=C(Nc1ccc2c(c1)N(Cc1ccccc1)C(=O)CS2)Nc1c[nH]c2ccc(-c3cccc(OC(F)(F)F)c3)cc12 [Example 58, 1-(4-benzyl-3-oxo-3,4-dihydro-2H-benzo[b][1,4]thiazin-6-yl)-3-(5-(3-(trifluoromethoxy)phenyl)-1H-indol-3-yl)urea]
27 | 1000 to 10000 |  | CC(O)Cn1cc(-c2ccc3[nH]cc(NC(=O)Nc4ccc5c(c4)N(Cc4ccccc4)C(=O)CS5)c3c2)cn1 (stereo not drawn) [Example 68, 1-(4-benzyl-3-oxo-3,4-dihydro-2H-benzo[b][1,4]thiazin-6-yl)-3-(5-(1-(2-hydroxypropyl)-1H-pyrazol-4-yl)-1H-indol-3-yl)urea]
28 | < 1000 |  | COc1cccc(-c2ccc3[nH]cc(NC(=O)Nc4ccc5c(c4)N(Cc4ccccc4)C(=O)CS5)c3c2)c1 [Example 53, 1-(4-benzyl-3-oxo-3,4-dihydro-2H-benzo[b][1,4]thiazin-6-yl)-3-(5-(3-methoxyphenyl)-1H-indol-3-yl)urea]
29 | < 1000 |  | N#Cc1ccc2[nH]cc(NC(=O)Nc3ccc4c(c3)N(Cc3ccccc3)C(=O)CS4)c2c1 [Example 37, 1-(4-benzyl-3-oxo-3,4-dihydro-2H-benzo[b][1,4]thiazin-6-yl)-3-(5-cyano-1H-indol-3-yl)urea]
30 | < 1000 |  | O=C(Nc1ccc2c(c1)N(Cc1ccccc1)C(=O)CS2)Nc1c[nH]c2ccc(-c3cccc(C(F)(F)F)c3)cc12 [Example 67, 1-(4-benzyl-3-oxo-3,4-dihydro-2H-benzo[b][1,4]thiazin-6-yl)-3-(5-(3-(trifluoromethyl)phenyl)-1H-indol-3-yl)urea]
31 | < 1000 |  | O=C(Nc1ccc2c(c1)N(Cc1ccccc1)C(=O)CS2)Nc1c[nH]c2ccc(-c3ccncc3)cc12 [Example 51, 1-(4-benzyl-3-oxo-3,4-dihydro-2H-benzo[b][1,4]thiazin-6-yl)-3-(5-(pyridin-4-yl)-1H-indol-3-yl)urea]
32 | < 1000 |  | O=C(Nc1ccc2c(c1)N(Cc1ccccc1)C(=O)CS2)Nc1c[nH]c2ccc(-c3cncc(Cl)c3)cc12 [Example 57, 1-(4-benzyl-3-oxo-3,4-dihydro-2H-benzo[b][1,4]thiazin-6-yl)-3-(5-(5-chloropyridin-3-yl)-1H-indol-3-yl)urea]
33 | 1000 to 10000 |  | O=C(Nc1ccc2c(c1)N(Cc1ccccc1)C(=O)CS2)Nc1c[nH]c2ccc(-c3cn[nH]c3)cc12 [Example 44, 1-(5-(1H-pyrazol-4-yl)-1H-indol-3-yl)-3-(4-benzyl-3-oxo-3,4-dihydro-2H-benzo[b][1,4]thiazin-6-yl)urea]
